Where a name gives a salt, the structure may show the parent alone.

human Glycogen Synthase Kinase-3 beta (hGSK-3β), sequence (P49841 whole entry): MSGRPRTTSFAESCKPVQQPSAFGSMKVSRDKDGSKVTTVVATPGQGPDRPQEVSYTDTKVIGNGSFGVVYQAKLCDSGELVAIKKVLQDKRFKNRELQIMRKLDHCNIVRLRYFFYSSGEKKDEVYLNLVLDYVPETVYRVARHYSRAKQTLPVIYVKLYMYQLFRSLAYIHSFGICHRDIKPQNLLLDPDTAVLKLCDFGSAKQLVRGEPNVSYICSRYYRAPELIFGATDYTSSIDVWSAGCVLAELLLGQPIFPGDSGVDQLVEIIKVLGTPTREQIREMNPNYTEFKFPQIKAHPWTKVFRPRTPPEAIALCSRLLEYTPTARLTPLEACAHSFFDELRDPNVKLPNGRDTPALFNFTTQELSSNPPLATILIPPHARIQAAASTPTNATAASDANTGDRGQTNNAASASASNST

In the assay the target is human Glycogen Synthase Kinase-3 beta (hGSK-3β) (Homo sapiens (Human), UniProt P49841). Kind of assay: Biochemical hGSK-3Beta Assay (33P-ATP phosphorylation of biotinylated peptide substrate, Flash-plate). The following applies: 0.0125 U hGSK-3β, 10 μM ATP, 1 μM substrate, 30 minutes at room temperature; read-out: GSK-3β IC50. Here is the method:
Methods—Biochemical hGSK-3Beta Assay
Compounds were tested for their ability to inhibit human Glycogen Synthase Kinase-3 beta (hGSK-3β) to phosphorylate biotin-[…](pS)EDEEE. Compounds were incubated with 0.5 μCi 33P-ATP, 10 μM ATP, 0.0125 U hGSK-3β (Upstate cell signaling solutions) and 1 μM substrate (biotin-[…](pS)EDEEE) in 50 mM HEPES, 10 mM MgCl2, […], 1 mM DTT, 0.0075% Triton, 2% DMSO (total volume 50 μL) for 30 minutes at room temperature. The incubation was stopped by addition of an equal volume of 100 mM EDTA, 4M NaCl. 80 μL of this mixture was added to streptavidin-coated Flash-plates (PerkinElmer). Following a wash step, 33P incorporation was quantified on a MicroBeta microplate liquid scintillation counter (Perkin Elmer). IC50s were determined by fitting a sigmoidal dose-response curve to the counts obtained at the different concentrations in GraphPad Prism.
`CC(C)(C)OC(=O)N1CCc2nc(C3C(=O)Nc4ccc(C#N)cc43)ccc2C1` (centres unmarked) [Example 2.2, tert-Butyl 2-(5-cyano-2-oxoindolin-3-yl)-7,8-dihydro-1,6-naphthyridine-6(5H)-carboxylate]: the concentration for half-maximal inhibition (IC50) was less than 100 nM.
Regarding `COC1CCCc2nc(C3C(=O)Nc4ccc(C#N)cc43)ccc21` (centres unmarked) [Example 6, 3-(5-Methoxy-5,6,7,8-tetrahydroquinolin-2-yl)-2-oxoindoline-5-carbonitrile], the IC50 is less than 100 nM.
In the case of `N#Cc1ccc2c(c1)C(c1ccc3c(n1)CCNC3)C(=O)N2` (centres unmarked) [Example 2, 2-Oxo-3-(5,6,7,8-tetrahydro-1,6-naphthyridin-2-yl)indoline-5-carbonitrile] it was less than 100 nM; in that of `N#Cc1ccc2c(c1)C(c1ccc3c(n1)CCCC3O)C(=O)N2` (centres unmarked) [Example 1, 3-(5-Hydroxy-5,6,7,8-tetrahydroquinolin-2-yl)-2-oxoindoline-5-carbonitrile], less than 100 nM; in that of `N#Cc1ccc2c(c1)C(c1ccc3c(n1)CNC3)C(=O)N2` (centres unmarked) [Example 5, 3-(6,7-Dihydro-5H-pyrrolo[3,4-b]pyridin-2-yl)-2-oxoindoline-5-carbonitrile hydrochloride], less than 100 nM.

The values above are taken from patent US10100048B2, “Heterocyclic compounds and their use as glycogen synthase kinase-3 inhibitors” (AbbVie Deutschland GmbH & Co. KG, priority 2010, dated 2018).
